Measured values published in patent publication US10654895B2, “Polypeptide, DNA molecule encoding the polypeptide, vector, preparation method and use” (WUHAN MORE BIOTECHNOLOGY CO., LTD., priority 2013, dated 2020).
Like-named read-outs stand apart in the source and are kept apart here. No end group written: not given here.

Tests used:
Pseudomonas aeruginosa = settings: Pseudomonas aeruginosa, strain not specified (Table 8)
[1] = tested on: Methicillin-resistant Staphylococcus aureus (MRSA); settings: Methicillin-resistant Staphylococcus aureus (Table 8)
[2] = tested on: Escherichia coli (E. coli) ATCC25922; settings: >25 means greater than or equal to 50 μg/mL
[3] = tested on: Staphylococcus aureus (RA) ATCC25923; settings: for MIC: Staphylococcus aureus (RA) ATCC25923, >25 means greater than or equal to 50 μg/mL; for inhibitory effect / antiseptic activity in words: against Staphylococcus aureus (RA) ATCC25923 and/or Escherichia coli ATCC25922
[4] = Staphylococcus aureus (methicillin-sensitive), strain not specified (Table 8)
[5] = Escherichia coli, strain not specified (Table 8)
[6] = standard Staphylococcus aureus (Table 2)
[7] = standard Escherichia coli (Table 2)

Row | Substance | MIC [2] [µg/mL] | MIC [3] [µg/mL] | Minimum inhibitory concentration MIC (Staphylococcus aureus; [6]) [µg/mL] | Minimum inhibitory concentration MIC (Escherichia coli; [7]) [µg/mL] | also measured
1 | FIGAIARLLRKIF [ABP-W1, reference compound] |  |  |  |  | Minimum inhibitory concentration MIC (Pseudomonas aeruginosa): >100 µg/mL; Minimum inhibitory concentration MIC (Staphylococcus aureus; [4]): 3.13 µg/mL; Minimum inhibitory concentration MIC [1]: 8 µg/mL; Minimum inhibitory concentration MIC (Escherichia coli; [5]): >100 µg/mL
2 | FIKRIARLLRKIF [BmKAMP1-M, reference compound] |  |  |  |  | Minimum inhibitory concentration MIC (Pseudomonas aeruginosa): 50 µg/mL; Minimum inhibitory concentration MIC (Staphylococcus aureus; [4]): 12.5 µg/mL; Minimum inhibitory concentration MIC [1]: 6.25 µg/mL; Minimum inhibitory concentration MIC (Escherichia coli; [5]): 12.5 µg/mL
3 | IARLLRIFFIRIARLLRIF [Ctryamp polypeptide mutant 28, IARLLRIFFIRIARLLRIF] | >25 | >25 |  |  | 
4 | FIRIAKLLKIF [Ctryamp-3, FIRIAKLLKIF] | 12.5 | 12.5 | 6.25 | 12.5 | 
5 | RLLRIF [Ctryamp polypeptide mutant 15, RLLRIF] | >25 | >25 |  |  | 
6 | FIRIARLLRIFFIRIARLLRIF [Ctryamp polypeptide mutant 31] | >25 | >25 |  |  | 
7 | Ac-FIRIARLLRIF [Ctryamp polypeptide mutant 32, Ac-FIRIARLLRIF] | 25 | 6.25 |  |  | inhibitory effect / antiseptic activity in words [3]: still have the antiseptic activity
8 | FIRLRIF [Ctryamp polypeptide mutant 14, FIRLRIF] | >25 | >25 |  |  | 
9 | FIHIARLLRIF [Ctryamp-R3H, FIHIARLLRIF] |  |  | 6.25 | 6.25 | 
10 | FIKIARLLKIF [Ctryamp-2, FIKIARLLKIF] | 12.5 | 12.5 | 12.5 | 6.25 | 
11 | FIHIAKLLRIF [Ctryamp-7, FIHIAKLLRIF] |  |  | 6.25 | 12.5 | 
12 | FIRIAKLLRIF [Ctryamp-R5K, FIRIAKLLRIF] |  |  | 6.25 | 6.25 | 
13 | FIRIADLLRIF [Ctryamp polypeptide mutant 2, FIRIADLLRIF] | >25 | 25 |  |  | 
14 | FIHIAHLLRIF [Ctryamp-5, FIHIAHLLRIF] |  |  | 12.5 | 6.25 | 
15 | FIKIARLLRIF [Ctryamp-R3K, FIKIARLLRIF] |  |  | 6.25 | 12.25 | 
16 | LRIFFIRIARLLRIF [Ctryamp polypeptide mutant 24, LRIFFIRIARLLRIF] | >25 | 25 |  |  | 
17 | RIARLLRIFFIRIARLLRIF [Ctryamp polypeptide mutant 29] | >25 | >25 |  |  | 
18 | FIHIARLLHIF [Ctryamp-6, FIHIARLLHIF] |  |  | 6.25 | 6.25 | 
19 | FIKRIARLLRIF [Ctryamp polypeptide mutant 20, FIKRIARLLRIF] | 6.25 | 6.25 |  |  | 
20 | FIRARLLRIF [Ctryamp polypeptide mutant 10, FIRARLLRIF] | >25 | >25 |  |  | 
21 | FIRIARLLRKIF [Ctryamp polypeptide mutant 17, FIRIARLLRKIF] | 12.5 | 6.25 |  |  | 
22 | FRIARLLRIF [Ctryamp polypeptide mutant 9, FRIARLLRIF] | 6.25 | 12.5 |  |  | 
23 | FIRIARLLKIF [Ctryamp-R9K, FIRIARLLKIF] |  |  | 6.25 | 12.5 | 

Row | Substance | MIC [2] [µg/mL] | MIC [3] [µg/mL] | Minimum inhibitory concentration MIC (Staphylococcus aureus; [6]) [µg/mL] | Minimum inhibitory concentration MIC (Escherichia coli; [7]) [µg/mL] | also measured
24 | FIRKIARLLRIF [Ctryamp polypeptide mutant 19, FIRKIARLLRIF] | 6.25 | 6.25 |  |  | 
25 | FIKIGKILKIF [Ctryamp polypeptide mutant 7, FIKIGKILKIF] | 12.5 | >25 |  |  | 
26 | FIKIAKLLRIF [Ctryamp-1, FIKIAKLLRIF] |  |  | 6.25 | 6.25 | 
27 | RIFFIRIARLLRIF [Ctryamp polypeptide mutant 23, RIFFIRIARLLRIF] | 12.5 | 12.5 |  |  | 
28 | FFIRIARLLRIF [Ctryamp polypeptide mutant 21, FFIRIARLLRIF] | 25 | 12.5 |  |  | 
29 | FIRRLLRIF [Ctryamp polypeptide mutant 12, FIRRLLRIF] | 25 | 12.5 |  |  | 
30 | FIRIARLRIF [Ctryamp polypeptide mutant 8, FIRIARLRIF] | 12.5 | 25 |  |  | 
31 | IRIARLLRIFFIRIARLLRIF [Ctryamp polypeptide mutant 30] | >25 | >25 |  |  | 
32 | FIRIARLLHIF [Ctryamp-R9H, FIRIARLLHIF] |  |  | 6.25 | 6.25 | 
33 | FIRIARLLKRIF [Ctryamp polypeptide mutant 18, FIRIARLLKRIF] | 12.5 | 6.25 |  |  | 
34 | RLLRIFFIRIARLLRIF [Ctryamp polypeptide mutant 26, RLLRIFFIRIARLLRIF] | >25 | >25 |  |  | 
35 | GFIRIARLLRIF [Ctryamp polypeptide mutant 16, GFIRIARLLRIF] | 6.25 | 6.25 |  |  | 
36 | FIKIGKLLKIF [Ctryamp polypeptide mutant 6, FIKIGKLLKIF] | 12.5 | 25 |  |  | 
37 | LLRIFFIRIARLLRIF [Ctryamp polypeptide mutant 25, LLRIFFIRIARLLRIF] | >25 | 25 |  |  | 
38 | FIGAIARLLSKIF [BmKAMP1, reference compound] |  |  |  |  | Minimum inhibitory concentration MIC (Pseudomonas aeruginosa): >100 µg/mL; Minimum inhibitory concentration MIC (Staphylococcus aureus; [4]): 3.13 µg/mL; Minimum inhibitory concentration MIC [1]: 12.5 µg/mL; Minimum inhibitory concentration MIC (Escherichia coli; [5]): >100 µg/mL
39 | FIRIARLLIF [Ctryamp polypeptide mutant 11, FIRIARLLIF] | >25 | >25 |  |  | 
40 | FIRIARLLEIF [Ctryamp polypeptide mutant 1, FIRIARLLEIF] | >25 | >25 |  |  | inhibitory effect / antiseptic activity in words [3]: no antiseptic activity
41 | FIKIAKLLKIF [Ctryamp-4, FIKIAKLLKIF] | 12.5 | 25 | 12.5 | 6.25 | 
42 | IFFIRIARLLRIF [Ctryamp polypeptide mutant 22, IFFIRIARLLRIF] | >25 | 12.5 |  |  | 
43 | ARLLRIFFIRIARLLRIF [Ctryamp polypeptide mutant 27, ARLLRIFFIRIARLLRIF] | >25 | >25 |  |  | 
44 | FIRIAKLLHIF [Ctryamp-8, FIRIAKLLHIF] |  |  | 6.25 | 12.5 | 
45 | FIRRLRIF [Ctryamp polypeptide mutant 13, FIRRLRIF] | >25 | >25 |  |  | 
46 | FIRIAHLLRIF [Ctryamp-R5H, FIRIAHLLRIF] |  |  | 6.25 | 12.5 | 
